Measured values published in PMC6631792, “In Vitro and In Vivo Anti-Breast Cancer Activities of Some Newly Synthesized 5-(thiophen-2-yl)thieno-[2,3-d]pyrimidin-4-one Candidates” (Molecules, 2019).
Read-outs that look alike come from different tables or passages of the source.

Experiments:
[1] = test system: MCF-7 cells; assay: MTT cytotoxic assay on MCF-7 cells; format: cell-based, Human
Text: “Human breast cancer cells (MCF-7) and normal non-tumorigenic MCF-10A cells were used throughout the work. Cells were obtained from ATCC, Gaithersburg, MD, USA. Standard MTT assay was used to explore the possible cytotoxic effects of the synthesized compounds [41, 42]. Medium composition, cultivation conditions and assay performance were exactly the same as our previous work. […] After MTT addition, the absorbance of the dissolved formazan crystals was read at 570 nm. The IC50 values were obtained with linear regression equations using Origin® 6.1 software (Origin Lab Corporation, Northampton, MA, USA)”.

[2] = Average animal weight in MCF-7 mouse xenograft model; format: in vivo; conditions: nude mice with MCF-7 xenograft, i.p.; for Average Weight of Animals in Grams after Days 0: day 0; for Average Weight of Animals in Grams after Days 2: day 2; for Average Weight of Animals in Grams after Days 4: day 4; for Average Weight of Animals in Grams after Days 6: day 6; for Average Weight of Animals in Grams after Days 8: day 8; for Average Weight of Animals in Grams after Days 10: day 10; for Average Weight of Animals in Grams after Days 12: day 12; for Average Weight of Animals in Grams after Days 14: day 14; for Average Weight of Animals in Grams after Days 16: day 16; for Average Weight of Animals in Grams after Days 18: day 18; for Average Weight of Animals in Grams after Days 20: day 20; for Average Weight of Animals in Grams after Days 22: day 22
Text: “In this work, MCF-7 mouse xenograft model was used. The animal protocol was approved by the Institutional Animal Use Ethics and Care Committee of the University of Alabama at Birmingham (50-01-05-08B). Female athymic pathogen-free nude mice (nu/nu, 4–6 weeks) were purchased from Frederick Cancer Research and Development Center (Frederick, MD, USA). To establish MCF-7 human breast cancer xenografts, each of the female nude mice was first implanted with a 60-day (subcutaneously, s.c.) slow release estrogen pellet (SE-121, 1.7 mg […]/pellet; Innovative Research of America, Sarasota, FL, USA). After 24 h, grown cells were harvested, washed twice with serum-free medium, resuspended, and injected subcutaneously (5 million cells/0.2 mL) into the left inguinal area of the mice. During the experiment, animals were checked periodically and the percentages of tumor growth, as well as animal weights, were recorded. Every 48 h, the size of the tumor was recorded by measuring two perpendicular diameters of the tumor and tumor volume was calculated according to Wang et al. [46]”.
“Treated animals and control groups (7–10 mice/group) received different compounds and vehicles, respectively. The tested compounds were dissolved in PEG400:ethanol:saline (57.1:14.3:28.6, v/v/v), and injected intraperitoneal (i.p.) at doses of […], 3 d/wk for 3 weeks. The higher dose (10 µM/kg/d, 3 d/wk) inhibited MCF-7 xenograft tumor growth”.

Row | Compound | Average Weight of Animals in Grams after Days 0 [2] [Grams] | Average Weight of Animals in Grams after Days 2 [2] [Grams] | Average Weight of Animals in Grams after Days 4 [2] [Grams] | Average Weight of Animals in Grams after Days 6 [2] [Grams] | Average Weight of Animals in Grams after Days 8 [2] [Grams] | Average Weight of Animals in Grams after Days 10 [2] [Grams] | Average Weight of Animals in Grams after Days 12 [2] [Grams] | Average Weight of Animals in Grams after Days 14 [2] [Grams] | Average Weight of Animals in Grams after Days 16 [2] [Grams] | Average Weight of Animals in Grams after Days 18 [2] [Grams] | Average Weight of Animals in Grams after Days 20 [2] [Grams] | Average Weight of Animals in Grams after Days 22 [2] [Grams] | IC50 [1] [µM] | IC50 ([1]; Homo sapiens, MCF7) [µM]
1 | N.N.[Cl][Pt][Cl] [Cisplatin, reference compound] | – | – | – | – | – | – | – | – | – | – | – | – | 13.34 ± 0.11 | –
2 | CCOC(=O)Cn1cnc2scc(-c3cccs3)c2c1=O [Compound 3, ethyl 2-(4-oxo-5-(thiophen-2-yl)thieno[2,3-d]pyrimidin-3(4H)-yl)acetate] | 28 | 28 | 28 | 28 | 28.2 | 27.9 | 27.8 | 27.7 | 27.7 | 27.6 | 27.7 | 27.7 | – | 5.98 ± 0.099
3 | O=c1oc(Cn2cnc3scc(-c4cccs4)c3c2=O)nc2ccccc12 [Compound 5, 2-((4-oxo-5-(thiophen-2-yl)thieno[2,3-d]pyrimidin-3(4H)-yl)methyl)-4H-benzo[d]-[1,3] oxazin-4-one] | 22.9 | 22.9 | 22.9 | 22.8 | 22.8 | 22.7 | 22.8 | 22.7 | 22.9 | 22.6 | 22.6 | 22.5 | – | 4.76 ± 0.087
4 | COc1cccc(C2SCC(=O)N2NC(=O)Cn2cnc3scc(-c4cccs4)c3c2=O)c1OC (stereo not shown) [Compound 8, N-(2-(2,3-Dimethoxyphenyl)-4-oxothiazolidin-3-yl)-2-(4-oxo-5-(thiophen-2-yl)thieno[2,3-d]pyrimidin-3(4H)-yl)acetamide] | 25.3 | 25.3 | 25.2 | 25.2 | 25.2 | 25.1 | 25.1 | 24.8 | 24.7 | 24.6 | 24.5 | 24.2 | – | 1.26 ± 0.052
5 | Milaplatin [reference compound] | – | – | – | – | – | – | – | – | – | – | – | – | 18.43 ± 0.13 | –

The next lines start with results.

Row | Average Weight of Animals in Grams after Days 0 [2] [Grams] | Average Weight of Animals in Grams after Days 2 [2] [Grams] | Average Weight of Animals in Grams after Days 4 [2] [Grams] | Average Weight of Animals in Grams after Days 6 [2] [Grams] | Average Weight of Animals in Grams after Days 8 [2] [Grams] | Average Weight of Animals in Grams after Days 10 [2] [Grams] | Average Weight of Animals in Grams after Days 12 [2] [Grams] | Average Weight of Animals in Grams after Days 14 [2] [Grams] | Average Weight of Animals in Grams after Days 16 [2] [Grams] | Average Weight of Animals in Grams after Days 18 [2] [Grams] | Average Weight of Animals in Grams after Days 20 [2] [Grams] | Average Weight of Animals in Grams after Days 22 [2] [Grams] | Compound | IC50 [1] [µM] | IC50 ([1]; Homo sapiens, MCF7) [µM]
6 | 24.9 | 24.9 | 24.9 | 24.9 | 24.8 | 24.8 | 24.8 | 24.4 | 24.4 | 24.4 | 24.4 | 24.4 | O=C(Cn1cnc2scc(-c3cccs3)c2c1=O)NNC(=S)Nc1ccccc1 [Compound 10, 2-(2-(4-oxo-5-(thiophen-2-yl)thieno[2,3-d]pyrimidin-3(4H)-yl)acetyl)-N-phenylhydrazine-1-carbothioamide] | – | 3.55 ± 0.065
7 | 26.6 | 26.6 | 26.6 | 26.5 | 26.6 | 26.6 | 26.4 | 26.3 | 26.3 | 26.3 | 26.3 | – | O=C(Cn1cnc2scc(-c3cccs3)c2c1=O)NN1C(=O)CSC1=Nc1ccccc1 [Compound 11, N-(4-oxo-2-(phenylimino)thiazolidin-3-yl)-2-(4-oxo-5-(thiophen-2-yl)thieno[2,3-d]-pyrimidin-3(4H)-yl)acetamide] | – | 2.48 ± 0.054
8 | 27.4 | 27.4 | 27.4 | 27.3 | 27.3 | 27.3 | 27.2 | 27.2 | 27.2 | 27.1 | 27.1 | 27.1 | Cc1cc(=O)n(C(=O)Cn2cnc3scc(-c4cccs4)c3c2=O)[nH]1 [Compound 12, 3-(2-(3-methyl-5-oxo-2,5-dihydro-1H-pyrazol-1-yl)-2-oxoethyl)-5-(thiophen-2-yl)thieno-[2,3-d]pyrimidin-4(3H)-one] | – | 3.36 ± 0.063
9 | 25.4 | 25.4 | 25.4 | 25.4 | 25.4 | 25.3 | 25.3 | 25.3 | 25.3 | 25.3 | 25.3 | 25.3 | CC(=O)NNC(=O)Cn1cnc2scc(-c3cccs3)c2c1=O [Compound 13, N′-acetyl-2-(4-oxo-5-(thiophen-2-yl)thieno[2,3-d]pyrimidin-3(4H)-yl)aceto-hydrazide] | – | 3.64 ± 0.074
10 | 26.5 | 26.4 | 26.3 | 26.2 | 26.1 | 25.9 | 25.9 | 25.9 | 25.8 | 25.8 | 25.7 | 25.7 | Nc1cc(O)cc(=O)n1NC(=O)Cn1cnc2scc(-c3cccs3)c2c1=O [Compound 14, N-(6-Amino-4-hydroxy-2-oxopyridin-1(2H)-yl)-2-(4-oxo-5-(thiophen-2-yl)thieno[2,3-d]-pyrimidin-3(4H)-yl)acetamide] | – | 1.19 ± 0.042
11 | 26.1 | 26.1 | 26.1 | 25.8 | 25.8 | 25.7 | 25.7 | 25.6 | 25.6 | 25.5 | 25.5 | 25.2 | NC1=CC(N)N(NC(=O)Cn2cnc3scc(-c4cccs4)c3c2=O)C=C1 (stereo not shown) [Compound 15, N-(2,4-Diaminopyridin-1(2H)-yl)-2-(4-oxo-5-(thiophen-2-yl)thieno[2,3-d]-pyrimidin-3(4H)-yl)acetamide] | – | 1.18 ± 0.032
